Data: US20190343908A1, “Therapeutic Combination for the Treatment of Cancer” (Nerium Biotechnology Inc., priority 2011, published 2019)

Legend:
[1] = tested on: T47D (human breast cancer); assay: Crystal Violet viability assay, T47D; format: cell-based; design: key: absorbance at 570 nm (crystal violet), background wavelength subtracted
Text: (§1) Three different viability assays were chosen to complement each other and yielded results dependent on concentration and cell line: the Methyl Tetrazolium dye assay, the Sulforhodamine B fluorescent dye assay, and the Crystal Violet dye assay.
(§2) The Sulforhodamine B and Crystal Violet assays provide information about protein and were used to complement the Methyl-Tetrazolium dye assay. […] It is used for the quantification of cellular proteins of cultured cells. The assay using Crystal Violet, a dye that binds electrostatically to proteins and stains DNA, provides a reliable, simple assay for measuring viability of cells.
(§3) The Methyl Tetrazolium, Sulforhodamine B, and Crystal Violet assays were used to assess cell viabilities. The incubation times were 24 hours, 48 hours, and 72 hours. The Nerium oleander extract Anvirzel™ (a hot water extract of oleander obtained from Salud Integral, Honduras) was tested in concentrations ranging from 0.01 ng/mL to 10 ng/mL.
(§4) Cells were detached by trypsinization (Trypsin-0.25% EDTA, Invitrogen, 25200-072) during the logarithmic phase of culture growth and plated in 96-well plates (18.000 cells/well) (Corning, Costar 359) in a final volume of 200 μl of medium per well. […] The absorbance was measured after 24 hours, 48 hours, and 72 hours of incubation.
For the Crystal Violet assay, the medium was removed from the 96-well plates, the plates rinsed with PBS (Sigma, P3813) and then the cells were […] by the addition of 10% formalin (MERCK, 1.04003.2500) for 20 minutes at RT. Formalin was removed and 0.25% aqueous crystal violet (Sigma, HT901), dissolved in water, was added for 10 minutes at RT. Unbound Crystal Violet was rinsed by washing with water and finally 33% acetic acid was added to dissolve the dye.
(§5) The optical density of each plate was measured on a μQuant spectrophotometer and the data were analyzed with Gen5 software (μQuant Biomolecular Spectrophotometer MQX200 and Gen5™ Microplate Data Collection & Analysis software, BioTek® Instruments. Inc, April 2008). Absorbance was measured at 570 nm for all assays and a second wavelength was measured in order to subtract noise. For the Methyl-Tetrazolium assay this second wavelength was 630 nm and for the Sulforhodamine B and Crystal Violet assays it was 690 nm.

[2] = tested on: HCT-116 (colorectal cancer); assay: Sulforhodamine B viability assay, HCT-116; format: cell-based, human; design: key: absorbance (optical density) at 570 nm, second wavelength subtracted; conditions: for Average SRB: HCT-116
Text: as §1, §2, §3, §4
For the Sulforhodamine B assay, 96-well plates were fixed by 10% trichloroacetic acid (Fluka, 91228) and were incubated at 4° C. for 1 hour. Afterwards, plates were rinsed with water and cells were stained with 0.4% Sulforhodamine B (Sigma, 341738), dissolved in 1% acetic acid (Carlo Ebra, 401422) for 15 minutes at room temperature (RT). The unbound stain was washed twice with 1% acetic acid. Finally, 10 mM Tris Buffer pH 10.5 (Sigma, T6791) was added to dissolve the dye.
as §5

N.N.[Cl][Pt][Cl] [cisplatin]
CVE Average ([1]; T47D Run 1, 24 h, 0.1 μg/ml CDDP): 0.64 | CVE Average ([1]; T47D Run 1, 24 h, 10 μg/ml CDDP): 0.417 | CVE Average ([1]; T47D Run 1, 48 h, 0.1 μg/ml CDDP): 0.67 | CVE Average ([1]; T47D Run 1, 48 h, 1 μg/ml CDDP): 0.369 | CVE Average ([1]; T47D Run 1, 48 h, 10 μg/ml CDDP): 0.518 | CVE Average ([1]; T47D Run 1, 48 h, 100 μg/ml CDDP): 0.319 | CVE Average ([1]; T47D Run 1, 72 h, 0.1 μg/ml CDDP): 0.654 | CVE Average ([1]; T47D Run 1, 72 h, 1 μg/ml CDDP): 0.347 | CVE Average ([1]; T47D Run 1, 72 h, 10 μg/ml CDDP): 0.34 | CVE Average ([1]; T47D Run 1, 72 h, 100 μg/ml CDDP): 0.293 | CVE Average ([1]; T47D Run 2, 24 h, 1 μg/ml CDDP): 0.385 | CVE Average ([1]; T47D Run 2, 24 h, 10 μg/ml CDDP): 0.597 | CVE Average ([1]; T47D Run 2, 24 h, 100 μg/ml CDDP): 0.317 | CVE Average ([1]; T47D Run 2, 48 h, 0.1 μg/ml CDDP): 0.45 | CVE Average ([1]; T47D Run 2, 48 h, 1 μg/ml CDDP): 0.223 | CVE Average ([1]; T47D Run 2, 48 h, 10 μg/ml CDDP): 0.315 | CVE Average ([1]; T47D Run 2, 72 h, 0.1 μg/ml CDDP): 1.124 | CVE Average ([1]; T47D Run 2, 72 h, 1 μg/ml CDDP): 0.33 | CVE Average ([1]; T47D Run 2, 72 h, 10 μg/ml CDDP): 0.334 | CVE Average ([1]; T47D Run 2, 72 h, 100 μg/ml CDDP): 0.381 | CVE Average ([1]; T47D Run 3, 24 h, 1 μg/ml CDDP): 0.4 | CVE Average ([1]; T47D Run 3, 24 h, 10 μg/ml CDDP): 0.488 | CVE Average ([1]; T47D Run 3, 24 h, 100 μg/ml CDDP): 0.385 | CVE Average ([1]; T47D Run 3, 48 h, 0.1 μg/ml CDDP): 0.778 | CVE Average ([1]; T47D Run 3, 48 h, 1 μg/ml CDDP): 0.435 | CVE Average ([1]; T47D Run 3, 48 h, 100 μg/ml CDDP): 0.544 | CVE Average ([1]; T47D Run 3, 72 h, 0.1 μg/ml CDDP): 0.722 | CVE Average ([1]; T47D Run 3, 72 h, 1 μg/ml CDDP): 0.223 | CVE Average ([1]; T47D Run 3, 72 h, 10 μg/ml CDDP): 0.31 | CVE Average ([1]; T47D Run 3, 72 h, 100 μg/ml CDDP): 0.22 | SRB Average ([2]; HCT-116, Run 3, 24 h, 0.1 μg/ml CDDP): 2.01 | SRB Average ([2]; HCT-116, Run 3, 24 h, 1 μg/ml CDDP): 2.129 | SRB Average ([2]; HCT-116, Run 3, 24 h, 10 μg/ml CDDP): 2.05 | SRB Average ([2]; HCT-116, Run 3, 24 h, 100 μg/ml CDDP): 2.084 | SRB Average ([2]; HCT-116, Run 3, 48 h, 0.1 μg/ml CDDP): 1.933 | SRB Average ([2]; HCT-116, Run 3, 48 h, 1 μg/ml CDDP): 1.394 | SRB Average ([2]; HCT-116, Run 3, 48 h, 10 μg/ml CDDP): 1.353 | SRB Average ([2]; HCT-116, Run 3, 48 h, 100 μg/ml CDDP): 1.136 | SRB Average ([2]; HCT-116, Run 3, 72 h, 0.1 μg/ml CDDP): 2.357 | SRB Average ([2]; HCT-116, Run 3, 72 h, 1 μg/ml CDDP): 1.78 | SRB Average ([2]; HCT-116, Run 3, 72 h, 10 μg/ml CDDP): 1.876 | SRB Average ([2]; HCT-116, Run 3, 72 h, 100 μg/ml CDDP): 1.404 | Average SRB ([2]; Run 1, 24 h, 0.1 μg/ml CDDP): 1.56 | Average SRB ([2]; Run 1, 24 h, 1 μg/ml CDDP): 1.606 | Average SRB ([2]; Run 1, 24 h, 10 μg/ml CDDP): 1.527 | Average SRB ([2]; Run 1, 24 h, 100 μg/ml CDDP): 1.736 | Average SRB ([2]; Run 1, 48 h, 0.1 μg/ml CDDP): 2.278 | Average SRB ([2]; Run 1, 48 h, 1 μg/ml CDDP): 2.16 | Average SRB ([2]; Run 1, 48 h, 10 μg/ml CDDP): 2.055 | Average SRB ([2]; Run 1, 48 h, 100 μg/ml CDDP): 1.169 | Average SRB ([2]; Run 1, 72 h, 0.1 μg/ml CDDP): 2.449 | Average SRB ([2]; Run 1, 72 h, 1 μg/ml CDDP): 1.569 | Average SRB ([2]; Run 1, 72 h, 10 μg/ml CDDP): 1.67 | Average SRB ([2]; Run 1, 72 h, 100 μg/ml CDDP): 1.616 | Average SRB ([2]; Run 2, 24 h, 0.1 μg/ml CDDP): 1.357 | Average SRB ([2]; Run 2, 24 h, 1 μg/ml CDDP): 1.199 | Average SRB ([2]; Run 2, 24 h, 10 μg/ml CDDP): 1.056 | Average SRB ([2]; Run 2, 24 h, 100 μg/ml CDDP): 1.173 | Average SRB ([2]; Run 2, 48 h, 0.1 μg/ml CDDP): 2.886 | Average SRB ([2]; Run 2, 48 h, 1 μg/ml CDDP): 2.878 | Average SRB ([2]; Run 2, 48 h, 10 μg/ml CDDP): 2.746 | Average SRB ([2]; Run 2, 48 h, 100 μg/ml CDDP): 2.664 | Average SRB ([2]; Run 2, 72 h, 0.1 μg/ml CDDP): 2.909 | Average SRB ([2]; Run 2, 72 h, 1 μg/ml CDDP): 2.703 | Average SRB ([2]; Run 2, 72 h, 10 μg/ml CDDP): 2.728 | Average SRB ([2]; Run 2, 72 h, 100 μg/ml CDDP): 2.514
